In patent publication US20220228985A1, “FLUORESCENT COMPOSITION FOR DETECTING BIOLOGICAL MATERIAL” (Bioacts Corporation, priority 2021, published 2022):

System: red blood cells
Assay: Microscopic analysis of hemolytic efficacy of surfactant compound
Format: cell-based
Details: E-check (low concentration), microscope X200 DIC, control PBS, FIG. 4
Method: Microscopic analysis was performed to visually confirm the blood hemolysis effect of the blood analysis reagent prepared with the compound of Chemical Formula 3 and the compound of Chemical Formula 4 as the surfactant compound. The blood analysis reagent prepared in E-check (low concentration), a quality control reagent, was treated and microscopic analysis was performed. The analysis was performed with a Nikon ECLIPSE microscope, and measured under X200 DIC filter conditions. As a control, a sample obtained by treating PBS in an E-check reagent was used.

Row | Compound | hemolysis of red blood cells
1 | CCCCCCCCCCCCCCn1cc(COCCOCCOCCOCCOCCOCCOCCOCCOCCOCCOCCOCCOCCOCCOCCOCCOCCOCCOCCOCCOCCO)nn1 [Chemical Formula 4] | excellent efficacy in hemolysis of red blood cells
2 | CCCCCCCCn1cc(COCCOCCOCCOCCOCCOCCOCCOCCOCCOCCO)nn1 [Compound 3b] | most cleanly hemolyzed
